{"source": "patent EP0028063A1", "about": "“Phenol derivatives, processes for their preparation and pharmaceutical compositions containing them” (GLAXO GROUP LIMITED, priority 1979, dated 1981)", "key": {"SRS-A": {"tested_on": "SRS-A", "experiment": "Antagonism of the action of SRS-A on guinea-pig isolated ileum (method of Coleman et al.; pA2 by Arunlakshana and Schild)", "format": "cell-based", "details": "Cavia porcellus, SRS-A induced contraction, compounds tested at concentrations of 10^-6 M", "excerpt": "The compounds according to the invention are potent antagonists of the action of slow reacting substance of anaphylaxis (SRS-A) as shown by their ability to inhibit the SRS-A induced contraction of guinea pig ileum (Coleman et al, Br. J. Pharmacol., 1979, 66, 83P). SRS-A is a naturally occurring substance which causes contraction of smooth muscle, especially bronchial muscle, and increases vascular permeability. The substance is not normally present in human tissue but is synthesised and released from certain cells during an allergic reaction. The compounds according to the invention are thus indicated for use in the treatment of disorders in which SRS-A may be a factor, for example, in obstructive airways diseases such as asthma, in hay fever and in skin afflictions.\nThe ability of the compounds to act as antagonists of the action of SRS-A was shown using guinea-pig isolated ileum according to the methods of Coleman et al, Br. J. Pharmacol., (1979), 66, 83P. Compounds were tested at concentrations of 10^-6 M and pA2 values were determined using the standard procedures of Arunlalkshana and Schild, Br. J. Pharmac."}, "dogs": {"tested_on": "dogs", "experiment": "Oral tolerability in dogs", "format": "in vivo", "details": "given orally to dogs at doses of up to 10 mg/kg", "excerpt": "The compounds are in general non-toxic at therapeutically useful doses."}}, "data": [{"compound": "CCCc1c(OCCCOc2ccc(OCC(=O)O)cc2)ccc(C(C)=O)c1O", "note": "[Example 1g]", "values": [{"measurement": "Kb", "setting": "SRS-A", "value": 0.1, "unit": "µM"}]}, {"compound": "CCCc1c(OCCCOc2cccc(CCC(=O)O)c2)ccc(C(C)=O)c1O", "note": "[Example 5, 3-[3-(4-Acetyl-3-hydroxy-2-propylphenoxy)propoxy]bepzene propanoic acid]", "values": [{"measurement": "adverse effects", "setting": "dogs", "value": "no adverse effects"}, {"measurement": "Kb", "setting": "SRS-A", "value": 0.0501, "unit": "µM"}]}, {"compound": "CCCc1c(OCCCCCOc2cccc(C=CC(=O)O)c2)ccc(C(C)=O)c1O", "note": "[Example 4b, 3-[3-[5-(4-Acetyl-3-hydroxy-2-propylphenoxy)pentyloxy]phenyl]-2-propenoic acid]", "values": [{"measurement": "Kb", "setting": "SRS-A", "value": 0.0501, "unit": "µM"}]}, {"compound": "CCCc1c(OCCCOc2cc(C=CC(=O)O)ccc2[N+](=O)[O-])ccc(C(C)=O)c1O", "note": "[Example 9b, 3-[3-[3-[4-Acetyl-3-hydroxy-2-propylphenoxy]propoxy]-4-nitrophenyl]-2-propenoic acid]", "values": [{"measurement": "Kb", "setting": "SRS-A", "value": 0.0316, "unit": "µM"}]}, {"compound": "CCCc1c(OCCCOc2ccc(C(=O)O)c(O)c2)ccc(C(C)=O)c1O", "note": "[Example 8, 4-[3-(4-Acetyl-3-hydroxy-2-propylphcnoxy)propoxy]-2-hydroxybenzoic acid]", "values": [{"measurement": "adverse effects", "setting": "dogs", "value": "no adverse effects"}, {"measurement": "Kb", "setting": "SRS-A", "value": 0.0158, "unit": "µM"}]}, {"compound": "CCCc1c(OCCCOc2ccc(C(=O)O)c(O)c2CCC)ccc(C(C)=O)c1O", "note": "[Example 2c, 4-(3-(4-Aceltyl-3-hydroxy-2-propylphenoxy)propoxy] -2-hydroxy-3-propylbenzoic acid]", "values": [{"measurement": "Kb", "setting": "SRS-A", "value": 0.0398, "unit": "µM"}]}, {"compound": "CCCc1c(OCCCOc2cccc(-c3nn[nH]n3)c2)ccc(C(C)=O)c1O", "note": "[Example 10b, 5-[3-[3-[4-Acetyl-3-hydroxy-2-propylphenoxy]propoxy]-phenyl]-lH-tetrazole]", "values": [{"measurement": "Kb", "setting": "SRS-A", "value": 0.0794, "unit": "µM"}]}, {"compound": "CCCc1c(OCCCOc2cccc(C=CC(=O)O)c2)ccc(C(C)=O)c1O", "note": "[Example 2a, 3-[3-[3-(4-Acetyl-3-hydroxy-2-propylphenoxy)propoxy]-phenyl]-2-propenoic acid]", "values": [{"measurement": "adverse effects", "setting": "dogs", "value": "no adverse effects"}, {"measurement": "Kb", "setting": "SRS-A", "value": 0.0398, "unit": "µM"}]}]}
